In PubChem BioAssay AID1117354 (Cheminformatics & Chemogenomics Research Group (CCRG), …, 2015):
Calls of active or inactive are those of the source. The rule behind the calls is not given here.

Biological target: Tyrosine-protein kinase JAK2 (Homo sapiens) (UniProt O60674)
Test: NCGC Pharmaceutical Collection primary HTS, Janus kinase 2 (Homo sapiens) inhibitors, biochemical, LANCE Ultra TR-FRET (AID 1117354)
Settings: LANCE Ultra TR-FRET kinase assay, at 20 µM (top of the series)

Chain of Tyrosine-protein kinase JAK2 (Homo sapiens) (O60674 whole entry, looked up): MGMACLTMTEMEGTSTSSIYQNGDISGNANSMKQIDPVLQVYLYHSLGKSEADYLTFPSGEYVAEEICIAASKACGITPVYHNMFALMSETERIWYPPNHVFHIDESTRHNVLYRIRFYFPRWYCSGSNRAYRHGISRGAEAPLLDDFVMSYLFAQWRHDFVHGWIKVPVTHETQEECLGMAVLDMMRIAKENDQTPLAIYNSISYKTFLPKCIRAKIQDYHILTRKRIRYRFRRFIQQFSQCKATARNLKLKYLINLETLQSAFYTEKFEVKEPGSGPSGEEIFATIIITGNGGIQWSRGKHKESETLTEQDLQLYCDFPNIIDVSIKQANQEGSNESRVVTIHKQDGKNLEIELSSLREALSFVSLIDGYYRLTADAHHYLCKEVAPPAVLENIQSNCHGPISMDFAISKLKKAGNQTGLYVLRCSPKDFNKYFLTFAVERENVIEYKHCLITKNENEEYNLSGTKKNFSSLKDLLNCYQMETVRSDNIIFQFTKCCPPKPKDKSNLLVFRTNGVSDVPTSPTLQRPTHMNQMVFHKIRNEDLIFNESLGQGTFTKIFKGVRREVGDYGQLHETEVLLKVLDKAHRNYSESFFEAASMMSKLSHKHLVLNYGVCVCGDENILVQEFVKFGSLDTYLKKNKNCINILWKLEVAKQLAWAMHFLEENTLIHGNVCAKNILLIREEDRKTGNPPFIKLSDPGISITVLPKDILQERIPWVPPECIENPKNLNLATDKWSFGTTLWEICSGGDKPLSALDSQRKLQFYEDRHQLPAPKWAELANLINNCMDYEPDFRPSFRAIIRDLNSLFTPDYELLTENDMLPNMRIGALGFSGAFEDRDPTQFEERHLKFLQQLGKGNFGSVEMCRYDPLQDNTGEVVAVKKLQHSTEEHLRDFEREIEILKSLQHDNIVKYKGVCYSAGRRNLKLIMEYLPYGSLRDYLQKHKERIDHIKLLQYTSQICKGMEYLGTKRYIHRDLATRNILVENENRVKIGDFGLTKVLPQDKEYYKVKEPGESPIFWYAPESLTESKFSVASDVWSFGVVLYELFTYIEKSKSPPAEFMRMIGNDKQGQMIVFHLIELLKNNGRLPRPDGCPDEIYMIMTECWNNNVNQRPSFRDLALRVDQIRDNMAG

inhibition, inactive:
CC(C)C[C@H](NC(=O)[C@H](Cc1ccccc1)NC(=O)c1cnccn1)B(O)O -3.33%
Cc1cc2c(C(C)C)c(O)c(O)c(C=O)c2c(O)c1-c1c(C)cc2c(C(C)C)c(O)c(O)c(C=O)c2c1O -0.85%
CCCCCCCCCCCCCCCCCCNC(=O)OC1CCN(C(=O)OC[C@H](COC(=O)N(Cc2cccc[n+]2CC)C(=O)c2ccccc2OC)OC)CC1 -2.67%
O=C(NOCC1CC1)c1ccc(F)c(F)c1Nc1ccc(I)cc1Cl 13.2%
